Reference: US8778951B2, “Heteroaryl compounds and their uses” (Novartis AG, priority 2009, dated 2014)

Molecular target: Cdk9/cyclinT1 (Homo sapiens (Human), UniProt P50750)
Assay: Cdk9/CyclinT1 IMAP Protocol (fluorescence polarization kinase assay)
Type: biochemical
Details: Table 2; generated using one of the two Cdk9/cyclinT1 assays (IMAP or Alpha Screen), not specified which; unit inferred
Method: Cdk9/CyclinT1 IMAP Protocol
The biological activity of the compounds of the invention can be determined using the assay described below.
Cdk9/cyclinT1 is purchased from Millipore, cat #14-685. The final total protein concentration in the assay 4 nM. […] The final concentration of peptide substrate is 100 nM. The ATP substrate (Adenosine-5′-triphosphate) is purchased from Roche Diagnostics, cat#1140965. The final concentration of ATP substrate is 6 uM. IMAP (Immobilized Metal Assay for Phosphochemicals) Progressive Binding reagent is purchased from Molecular Devices, cat#R8139. Fluorescence polarization (FP) is used for detection. The 5TAMRA-cdk7tide peptide is phosphorylated by Cdk9/cyclinT1 kinase using the ATP substrate. The Phospho-5TAMRA-cdk7tide peptide substrate is bound to the IMAP Progressive Binding Reagent. The binding of the IMAP Progressive Binding Reagent changes the fluorescence polarization of the 5TAMRA-cdk7tide peptide which is measured at an excitation of 531 nm and FP emission of 595 nm. Assays are carried out in 100 mM Tris, pH=7.2, mM MgCl2, 0.05% NaN3, 0.01% Tween-20, 1 mM dithiothreitol and 2.5% dimethyl sulfoxide. IMAP Progressive Binding Reagent is diluted 1:800 in 100% 1× Solution A from Molecular Devices, cat#R7285.
General protocol is as follows: To 10 ul of cdk9/cyclinT1, 0.5 ul of test compound in dimethyl sulfoxide is added. 5TAMRA-cdk7tide and ATP are mixed. 10 ul of the 5TAMRA-cdk7tide/ATP mix is added to start the reaction. The reaction is allowed to proceed for 4.5 hrs. 60 uL of IMAP Progressive Binding Reagent is added. After >1 hr of incubation, plates are read on the Envision 2101 from Perkin-Elmer. The assay is run in a 384-well format using black Corning plates, cat#3573.

Chain of Cdk9/cyclinT1 (P50750 whole entry): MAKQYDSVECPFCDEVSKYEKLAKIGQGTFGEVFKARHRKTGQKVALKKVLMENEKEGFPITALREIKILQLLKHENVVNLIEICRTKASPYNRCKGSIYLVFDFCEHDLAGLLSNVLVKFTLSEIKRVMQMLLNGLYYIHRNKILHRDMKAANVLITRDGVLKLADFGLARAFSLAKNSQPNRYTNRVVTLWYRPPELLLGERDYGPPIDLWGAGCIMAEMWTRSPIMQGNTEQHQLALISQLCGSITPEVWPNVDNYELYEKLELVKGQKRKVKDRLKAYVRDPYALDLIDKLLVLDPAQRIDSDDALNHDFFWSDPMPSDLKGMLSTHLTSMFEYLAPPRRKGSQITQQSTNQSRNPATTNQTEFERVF
Chain of Cdk9/cyclinT1 (O60563 whole entry partner): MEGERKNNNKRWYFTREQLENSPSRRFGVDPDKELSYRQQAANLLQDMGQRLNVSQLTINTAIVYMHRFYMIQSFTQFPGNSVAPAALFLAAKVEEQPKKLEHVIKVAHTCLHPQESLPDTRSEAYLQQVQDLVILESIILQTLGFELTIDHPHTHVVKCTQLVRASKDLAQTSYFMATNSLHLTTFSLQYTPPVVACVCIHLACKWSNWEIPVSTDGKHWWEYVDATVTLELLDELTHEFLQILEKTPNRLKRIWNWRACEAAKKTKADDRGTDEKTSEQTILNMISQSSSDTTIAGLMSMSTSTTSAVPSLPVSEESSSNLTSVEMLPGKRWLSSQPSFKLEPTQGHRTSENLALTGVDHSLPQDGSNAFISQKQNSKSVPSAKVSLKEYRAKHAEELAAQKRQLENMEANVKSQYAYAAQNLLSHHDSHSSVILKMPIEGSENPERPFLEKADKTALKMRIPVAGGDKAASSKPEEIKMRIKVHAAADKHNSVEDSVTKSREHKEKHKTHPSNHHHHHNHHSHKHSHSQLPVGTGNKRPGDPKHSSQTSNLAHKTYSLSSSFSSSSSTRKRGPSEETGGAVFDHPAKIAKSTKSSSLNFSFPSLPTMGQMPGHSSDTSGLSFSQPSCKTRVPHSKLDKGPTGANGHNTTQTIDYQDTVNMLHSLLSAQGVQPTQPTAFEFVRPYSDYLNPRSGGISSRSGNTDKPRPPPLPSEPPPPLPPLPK

Row | Compound | IC50 [nM]
1 | 3,5′-dichloro-N6-((tetrahydro-2H-pyran-4-yl)methyl)-N2′-(trans-4-(((R)-tetrahydrofuran-2-yl)methyl)aminocyclohexyl)-2,4′-bipyridine-2′,6-diamine [Compound 268] | 8.14
2 | Clc1cnc(N[C@H]2CC[C@H](NC3CCOC3)CC2)cc1-c1nc(NCC2CCOCC2)ccc1Cl (mixture of isomers) [Compound 280, 3,5′-dichloro-N6-((tetrahydro-2H-pyran-4-yl)methyl)-N2′-(trans-4-(tetrahydrofuran-3-yl-amino)cyclohexyl)-2,4′-bipyridine-2′,6-diamine] | 16.1
3 | CC1(C)C[C@H](CNc2cccc(-c3cc(N[C@H]4CC[C@H](N)CC4)ncc3Cl)n2)CCO1 (single isomer, unassigned) [Compound 256] | 7.94
4 | CC1(C)C[C@@H](CNc2cccc(-c3cc(N[C@H]4CC[C@H](N)CC4)ncc3Cl)n2)CCO1 (single isomer, unassigned) [Compound 257] | 7.94
5 | C[C@H]1C[C@@H](Nc2cc(-c3cccc(NCc4cccc(F)c4)n3)c(Cl)cn2)CC[C@@H]1N (stereo in doubt) [Compound 152] | 27
6 | COC[C@@H](C)N[C@H]1CC[C@H](Nc2cc(-c3nc(NCC4CCCCO4)ccc3Cl)c(Cl)cn2)CC1 (stereo in doubt) [Compound 321, 3,5′-dichloro-N2′-(trans-4-((R)-1-methoxypropan-2-yl-amino)cyclohexyl)-N6-(((S)-tetrahydro-2H-pyran-2-yl)methyl)-2,4′-bipyridine-2′,6-diamine] | 11
7 | COC[C@@H](C)N[C@H]1CC[C@H](Nc2cc(-c3nc(NCC4CCCCO4)ccc3Cl)c(Cl)cn2)CC1 (stereo in doubt) [Compound 325, 3,5′-dichloro-N2′-(trans-4-((R)-1-methoxypropan-2-yl-amino)cyclohexyl)-N6-(((R)-tetrahydro-2H-pyran-2-yl)methyl)-2,4′-bipyridine-2′,6-diamine] | 10
8 | N[C@H]1CC[C@H](Nc2cc(-c3cccc(NCc4cccc(F)c4)n3)c(Cl)cn2)CC1 [Compound 1, N2′-(trans-4-aminocyclohexyl)-5′-chloro-N6-(3-fluorobenzyl)-2,4′-bipyridine-2′,6-diamine] | 7.95
9 | N[C@H]1CC[C@H](Nc2cc(-c3cccc(NCC4CCCCC4)n3)ccn2)CC1 [Compound 2, N2′-(trans-4-aminocyclohexyl)-N6-(cyclohexylmethyl)-2,4′-bipyridine-2′,6-diamine] | 25.6
10 | N[C@H]1CC[C@H](Nc2ncc(Cl)c(-c3cccc(NCC4CCCCC4)n3)n2)CC1 [Compound 3, trans-N1-(5-chloro-4-(6-(cyclohexylmethylamino)pyridin-2-yl)pyrimidin-2-yl)cyclohexane-1,4-diamine] | 238
11 | NC[C@H]1CC[C@H](Nc2cc(-c3cccc(NCc4cccc(F)c4)n3)c(Cl)cn2)CC1 [Compound 4, N2′-(trans-4-(aminomethyl)cyclohexyl)-5′-chloro-N6-(3-fluorobenzyl)-2,4′-bipyridine-2′,6-diamine] | 9.05
12 | Fc1cccc(CNc2cccc(-c3cc(NC4CCNCC4)ncc3Cl)n2)c1 [Compound 5, 5′-chloro-N6-(3-fluorobenzyl)-N2′-(piperidin-4-yl)-2,4′-bipyridine-2′,6-diamine] | 39.7
13 | CCS(=O)(=O)N1CCC(Nc2cc(-c3cccc(NCc4cccc(F)c4)n3)c(Cl)cn2)CC1 [Compound 6, 5′-chloro-N2′-(1-(ethylsulfonyl)piperidin-4-yl)-N6-(3-fluorobenzyl)-2,4′-bipyridine-2′,6-diamine] | 136
14 | CN(C)CC(=O)N[C@H]1CC[C@H](Nc2cc(-c3cccc(NCc4cccc(F)c4)n3)c(Cl)cn2)CC1 [Compound 7, N-(trans-4-(5′-chloro-6-(3-fluorobenzylamino)-2,4′-bipyridin-2′-yl-amino)cyclohexyl)-2-(dimethylamino)acetamide] | 24.8
15 | O[C@H]1CC[C@H](Nc2cc(-c3cccc(NC4CCNCC4)n3)c(Cl)cn2)CC1 [Compound 8, trans-4-(5′-chloro-6-(piperidin-4-yl-amino)-2,4′-bipyridin-2′-yl-amino)cyclohexanol] | 84.8
16 | NC[C@H]1CC[C@H](Nc2cc(-c3cccc(OCc4cccc(F)c4)n3)c(Cl)cn2)CC1 [Compound 9, N-(trans-4-(aminomethyl)cyclohexyl)-5′-chloro-6-(3-fluorobenzyloxy)-2,4′-bipyridin-2′-amine] | 7.95
17 | Fc1cccc(CNc2cncc(-c3ccnc(N[C@H]4CC[C@H](NCc5ccccc5)CC4)c3)n2)c1 [Compound 10, trans-N1-benzyl-N4-(4-(6-(3-fluorobenzylamino)pyrazin-2-yl)pyridin-2-yl)cyclohexane-1,4-diamine] | 18.6
18 | N[C@H]1CC[C@H](Nc2cc(-c3cc(C(F)(F)F)cc(NCc4cccc(F)c4)n3)ccn2)CC1 [Compound 11, N2′-(trans-4-aminocyclohexyl)-N6-(3-fluorobenzyl)-4-(trifluoromethyl)-2,4′-bipyridine-2′,6-diamine] | 133
19 | N#Cc1ccc(-c2cc(N[C@H]3CC[C@H](N)CC3)ncc2Cl)nc1NCc1cccc(F)c1 [Compound 13, 2′-((1r,4r)-4-amonocyclohexylamino)-5′-chloro-6-(3-fluorobenzylamino)-2,4′-bipyridine-5-carbonitrile] | 7.95

Row | Compound | IC50 [nM]
20 | NC(=O)c1ccc(-c2cc(N[C@H]3CC[C@H](N)CC3)ncc2Cl)nc1NCc1cccc(F)c1 [Compound 14, 2′-((1r,4r)-4-aminocyclohexylamino)-5′-chloro-6-(3-fluorobenzylamino)-2,4′-bipyridine-5-carboxamide] | 522
21 | NC(=O)c1cc(NCc2cccc(F)c2)nc(-c2cc(N[C@H]3CC[C@H](N)CC3)ncc2Cl)c1 [Compound 16, 2′-(trans-4-aminocyclohexylamino)-5′-chloro-6-(3-fluorobenzylamino)-2,4′-bipyridine-4-carboxamide] | 23.6
22 | N[C@H]1CC[C@H](Nc2cc(-c3cc(C(=O)O)cc(NCc4cccc(F)c4)n3)c(Cl)cn2)CC1 [Compound 17, 2′-(trans-4-aminocyclohexylamino)-5′-chloro-6-(3-fluorobenzylamino)-2,4′-bipyridine-4-carboxylic acid] | 23.2
23 | OCCN[C@H]1CC[C@H](Nc2cc(-c3cccc(NCc4cccc(F)c4)n3)c(Cl)cn2)CC1 [Compound 19, 2-(trans-4-(5′-chloro-6-(3-fluorobenzylamino)-2,4′-bipyridin-2′-yl-amino)cyclohexylamino)ethanol] | 7.95
24 | CS(=O)(=O)CCN[C@H]1CC[C@H](Nc2cc(-c3cccc(NCc4cccc(F)c4)n3)c(Cl)cn2)CC1 [Compound 20, 5′-chloro-N6-(3-fluorobenzyl)-N2′-(trans-4-(2-(methylsulfonyl)ethylamino)cyclohexyl)-2,4′-bipyridine-2′,6-diamine] | 7.95
25 | CN[C@H]1CC[C@H](Nc2cc(-c3cccc(NCc4cccc(F)c4)n3)c(Cl)cn2)CC1 [Compound 21, 5′-chloro-N6-(3-fluorobenzyl)-N2′-(trans-4-(methylamino)cyclohexyl)-2,4′-bipyridine-2′,6-diamine] | 7.95
26 | CNC[C@H]1CC[C@H](Nc2cc(-c3cccc(NCc4cccc(F)c4)n3)c(Cl)cn2)CC1 [Compound 22, 5′-chloro-N6-(3-fluorobenzyl)-N2′-(trans-4-((methylamino)methyl)cyclohexyl)-2,4′-bipyridine-2′,6-diamine] | 7.95
27 | Fc1cc(F)cc(CNc2cccc(-c3cc(N[C@H]4CC[C@H](N5CCCC5)CC4)ncc3Cl)n2)c1 [Compound 23, 5′-chloro-N6-(3,5-difluorobenzyl)-N2′-(trans-4-(pyrrolidin-1-yl)cyclohexyl)-2,4′-bipyridine-2′,6-diamine] | 7.95
28 | N[C@H]1CC[C@H](Nc2cc(-c3cccc(NCC4CCCCC4)n3)c(Cl)cn2)CC1 [Compound 24] | 12.4
29 | N[C@H]1CC[C@H](Nc2cc(-c3cccc(NCc4ccccc4)n3)c(Cl)cn2)CC1 [Compound 25] | 8.08
30 | N[C@H]1CC[C@H](Nc2cc(-c3cccc(NCc4cccnc4)n3)c(Cl)cn2)CC1 [Compound 26] | 16.3
31 | N[C@H]1CC[C@H](Nc2cc(-c3cccc(NCc4cc(F)cc(F)c4)n3)c(Cl)cn2)CC1 [Compound 29] | 7.95
32 | N[C@H]1CC[C@H](Nc2cc(-c3cccc(NCc4ccccc4)n3)ccn2)CC1 [Compound 31] | 44.8
33 | N[C@H]1CC[C@H](Nc2cc(-c3cccc(NCc4cccc(F)c4)n3)ccn2)CC1 [Compound 32] | 15
34 | N[C@H]1CC[C@H](Nc2cc(-c3cccc(NCc4ccncc4)n3)ccn2)CC1 [Compound 33] | 27
35 | N[C@H]1CC[C@H](Nc2ncc(Cl)c(-c3cccc(NCc4cccc(F)c4)n3)n2)CC1 [Compound 34] | 48.3
36 | N[C@H]1CC[C@H](Nc2ncc(Cl)c(-c3cccc(NCc4ccncc4)n3)n2)CC1 [Compound 35] | 55.8
37 | N[C@H]1CC[C@H](Nc2cc(-c3cccc(NCc4cccc(OC(F)F)c4)n3)c(Cl)cn2)CC1 [Compound 36] | 8.91
